Results from the Kinase Knowledgebase extract (Sharma et al. 2016).

Assays:
Assay in all cases: Enzyme Assay
PIK3CG (human) = PIK3CG (human) (UniProt P48736)
PIK3CB (Human) = PIK3CB (Human) (UniProt P42338)
PIK3CD (Human) = PIK3CD (Human) (UniProt O00329)
Sequence of PIK3CD (Human) (O00329 whole entry, looked up): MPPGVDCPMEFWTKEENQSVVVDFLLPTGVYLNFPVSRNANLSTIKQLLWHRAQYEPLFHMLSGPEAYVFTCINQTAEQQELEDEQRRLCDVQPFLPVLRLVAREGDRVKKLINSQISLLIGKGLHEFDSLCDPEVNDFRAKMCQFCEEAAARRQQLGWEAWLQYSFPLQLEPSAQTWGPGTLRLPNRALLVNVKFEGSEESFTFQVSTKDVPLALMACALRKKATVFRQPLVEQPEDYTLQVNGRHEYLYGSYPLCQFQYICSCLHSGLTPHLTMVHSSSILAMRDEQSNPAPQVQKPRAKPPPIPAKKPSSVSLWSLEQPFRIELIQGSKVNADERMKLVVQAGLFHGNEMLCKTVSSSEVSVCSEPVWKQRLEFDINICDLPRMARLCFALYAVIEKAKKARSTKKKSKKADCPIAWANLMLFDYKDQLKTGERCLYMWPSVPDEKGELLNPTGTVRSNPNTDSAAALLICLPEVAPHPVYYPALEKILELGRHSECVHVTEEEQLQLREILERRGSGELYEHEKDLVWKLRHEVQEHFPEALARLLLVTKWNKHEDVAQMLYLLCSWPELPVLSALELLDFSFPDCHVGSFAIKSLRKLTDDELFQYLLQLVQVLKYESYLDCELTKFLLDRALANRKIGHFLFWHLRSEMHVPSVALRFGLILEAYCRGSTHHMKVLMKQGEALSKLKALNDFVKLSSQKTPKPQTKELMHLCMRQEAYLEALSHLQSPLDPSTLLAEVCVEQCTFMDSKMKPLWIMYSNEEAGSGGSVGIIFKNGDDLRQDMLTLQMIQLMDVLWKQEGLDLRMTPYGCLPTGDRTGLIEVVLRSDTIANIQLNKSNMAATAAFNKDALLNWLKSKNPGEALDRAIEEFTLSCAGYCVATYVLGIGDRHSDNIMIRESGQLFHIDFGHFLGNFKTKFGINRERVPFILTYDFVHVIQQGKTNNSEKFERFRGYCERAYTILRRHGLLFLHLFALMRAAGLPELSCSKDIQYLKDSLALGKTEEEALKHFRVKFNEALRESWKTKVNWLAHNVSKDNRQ

Sequence of PIK3CB (Human) (P42338 whole entry, looked up): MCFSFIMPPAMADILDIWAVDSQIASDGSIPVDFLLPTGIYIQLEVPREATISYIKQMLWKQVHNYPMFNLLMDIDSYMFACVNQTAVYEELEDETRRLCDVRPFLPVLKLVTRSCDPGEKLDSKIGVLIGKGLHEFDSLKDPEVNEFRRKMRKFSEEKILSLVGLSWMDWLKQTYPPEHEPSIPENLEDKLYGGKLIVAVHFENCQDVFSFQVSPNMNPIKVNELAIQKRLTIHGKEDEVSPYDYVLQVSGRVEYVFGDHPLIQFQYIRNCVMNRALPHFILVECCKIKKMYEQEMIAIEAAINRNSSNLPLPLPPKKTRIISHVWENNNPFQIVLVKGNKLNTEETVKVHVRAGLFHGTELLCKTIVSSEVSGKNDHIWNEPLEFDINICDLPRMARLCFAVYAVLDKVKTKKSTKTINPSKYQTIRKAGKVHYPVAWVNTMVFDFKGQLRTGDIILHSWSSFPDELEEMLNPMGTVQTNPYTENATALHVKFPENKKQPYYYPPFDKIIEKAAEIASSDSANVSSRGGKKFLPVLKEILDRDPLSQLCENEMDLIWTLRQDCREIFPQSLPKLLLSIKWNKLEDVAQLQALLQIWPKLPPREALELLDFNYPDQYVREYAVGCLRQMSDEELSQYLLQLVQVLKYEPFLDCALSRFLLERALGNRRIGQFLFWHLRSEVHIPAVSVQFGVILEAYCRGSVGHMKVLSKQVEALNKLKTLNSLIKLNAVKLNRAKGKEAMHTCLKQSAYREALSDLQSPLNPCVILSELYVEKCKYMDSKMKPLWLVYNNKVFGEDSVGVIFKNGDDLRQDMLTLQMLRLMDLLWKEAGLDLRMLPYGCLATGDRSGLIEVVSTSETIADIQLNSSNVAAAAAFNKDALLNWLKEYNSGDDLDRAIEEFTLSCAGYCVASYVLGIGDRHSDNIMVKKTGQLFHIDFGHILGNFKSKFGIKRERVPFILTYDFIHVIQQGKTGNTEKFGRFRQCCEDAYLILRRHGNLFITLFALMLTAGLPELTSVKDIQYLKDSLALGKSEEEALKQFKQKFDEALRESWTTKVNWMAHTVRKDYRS
Sequence of PIK3CG (human) (P48736 whole entry, looked up): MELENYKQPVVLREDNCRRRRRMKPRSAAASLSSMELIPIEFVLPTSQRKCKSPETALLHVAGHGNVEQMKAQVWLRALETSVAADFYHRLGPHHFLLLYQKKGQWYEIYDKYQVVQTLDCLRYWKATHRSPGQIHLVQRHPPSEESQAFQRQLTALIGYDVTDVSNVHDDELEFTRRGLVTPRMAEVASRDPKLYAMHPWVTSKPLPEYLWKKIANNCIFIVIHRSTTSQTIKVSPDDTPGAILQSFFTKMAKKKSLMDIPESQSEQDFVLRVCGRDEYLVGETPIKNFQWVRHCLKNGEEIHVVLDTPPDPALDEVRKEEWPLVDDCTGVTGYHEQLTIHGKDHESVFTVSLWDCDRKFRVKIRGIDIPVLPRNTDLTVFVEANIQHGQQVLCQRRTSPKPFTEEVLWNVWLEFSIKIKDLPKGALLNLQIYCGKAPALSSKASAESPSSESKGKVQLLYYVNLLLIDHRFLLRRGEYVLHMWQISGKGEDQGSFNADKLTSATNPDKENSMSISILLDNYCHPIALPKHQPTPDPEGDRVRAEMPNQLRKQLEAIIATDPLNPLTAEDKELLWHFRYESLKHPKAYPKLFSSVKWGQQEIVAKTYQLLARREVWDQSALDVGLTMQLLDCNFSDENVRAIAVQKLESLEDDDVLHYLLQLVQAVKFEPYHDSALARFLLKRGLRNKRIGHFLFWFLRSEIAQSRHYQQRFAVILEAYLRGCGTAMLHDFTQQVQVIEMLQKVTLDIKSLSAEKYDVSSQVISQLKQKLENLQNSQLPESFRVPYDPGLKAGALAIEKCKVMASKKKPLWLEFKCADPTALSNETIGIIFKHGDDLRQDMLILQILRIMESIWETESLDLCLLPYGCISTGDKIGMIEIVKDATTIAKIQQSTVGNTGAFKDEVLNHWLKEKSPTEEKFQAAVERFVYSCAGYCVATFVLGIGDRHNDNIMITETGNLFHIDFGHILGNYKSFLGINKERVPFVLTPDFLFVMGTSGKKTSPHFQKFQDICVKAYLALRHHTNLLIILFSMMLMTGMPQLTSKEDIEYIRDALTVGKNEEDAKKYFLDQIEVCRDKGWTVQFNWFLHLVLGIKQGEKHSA

Structure (SMILES)	IC50 (PIK3CG (human)) [µM]	IC50 (PIK3CB (Human)) [µM]	IC50 (PIK3CD (Human)) [µM]
Nc1cnc(-n2c([C@@H](Nc3ncnc(N)c3Cl)C3CC3)nc3cccc(Cl)c3c2=O)cn1	> 10	0.72	
C[C@H](Nc1ncnc(N)c1C#N)c1nc2c(F)ccc(Cl)c2c(=O)n1-c1cnc(N)cn1	> 10		
C[C@H](Nc1nc(N)nc(N)c1Cl)c1nc2c(F)ccc(Cl)c2c(=O)n1-c1cnc(N)cn1	> 10		
C[C@H](Nc1nc(N)nc(N)c1Cl)c1nc2c(F)cc(F)cc2c(=O)n1-c1cnc(N)cn1	> 10	0.53	0.78
C[C@H](Nc1ncnc(N)c1Cl)c1nc2cccc(Cl)c2c(=O)n1-c1cnc(N)cn1	> 10	0.36	0.054
C[C@H](Nc1nc(N)nc(N)c1Cl)c1nc2c(Cl)ccc(Cl)c2c(=O)n1-c1cnc(N)cn1	> 10		
C[C@H](Nc1ncnc2[nH]nnc12)c1nc2c(F)cccc2c(=O)n1-c1cnc(N)cn1	> 10	> 10	
Nc1cnc(-n2c([C@@H](Nc3ncnc(N)c3Cl)C3CC3)nc3c(Cl)ccc(Cl)c3c2=O)cn1	> 10	1.1	0.026
Nc1cnc(-n2c([C@@H](Nc3nc(N)nc(N)c3Cl)C3CC3)nc3cccc(Cl)c3c2=O)cn1	> 10		
C[C@H](Nc1nc(N)nc(N)c1Cl)c1nc2c(Cl)cc(F)cc2c(=O)n1-c1cnc(N)cn1	> 10	0.57	0.5
C[C@H](Nc1ncnc2occc12)c1nc2c(F)ccc(Cl)c2c(=O)n1-c1cnc(N)cn1	> 10		
Nc1cnc(-n2c([C@@H](Nc3nc(N)nc(N)c3Cl)C3CC3)nc3c(Cl)ccc(Cl)c3c2=O)cn1	> 10		
C[C@H](Nc1nc(N)nc(C(F)F)c1C#N)c1nc2c(Cl)cc(F)cc2c(=O)n1-c1cnc(N)cn1	> 10	0.2	0.34
